Measured values published in patent publication EP0782989A1, “INDOLE DERIVATIVES” (KYOWA HAKKO KOGYO CO., LTD., priority 1995, dated 1997).
Structures can show the parent of a compound that is named as a salt.

Tests used:
ovariectomized rats [1] = experiment: Inhibitory effect on the increase of urinary hydroxyproline excretion by ovariectomy; type: in vivo, SD strain rats; conditions: Rattus norvegicus, po, 336 h; 10 mg/kg orally once a day for two weeks after ovariectomy; hydroxyproline/creatinine molar ratio in 24 hours urine; read-out: Inhibition rate of increase of the amount of urinary hydroxyproline excretion
Experimental: The inhibitory effect of the compounds of the present application on bone resorption was also determined by their inhibitory effect on the excretion of urinary hydroxyproline which is elevated by ovariectomy of the animals tested, according to the report of Kalu et al. [Bone and Mineral., 14, 175 (1991)].
Test Example 2: Inhibitory effect on the increase of urinary hydroxyproline excretion by ovariectomy
12-weeks-old female SD strain rats (Japan Clea Co., Ltd.) were acclimated for 1 week during which they were given tap water and a standard diet (F2; Funabashi Farmas) ad libitum. The experiment was carried out using the rats weighing 270-310 g. After the animals were subjected to sham operation or bilateral ovariectomy, they were allowed free access to water passed through ion exchange resin instead of tap water, and were housed in individual cages. The test compound (10 mg/kg) was suspended in 0.3% Tween or 0.5% methylcellulose, and the obtained suspension was orally administered to the ovariectomized rats once a day for two weeks starting from the day following ovariectomy (0.5 ml/100 g body weight). 0.3% Tween or 0.5% methylcellulose was similarly administered to sham-operated rats and ovariectomized control rats. After the final administration, the rats were placed in individual metabolic cages and fasted during 24 hours, and urine was collected. The volume of the collected urine was measured and the urine was centrifuged at 3,000 rpm for 15 min at 4°C. The concentration of hydroxyproline in the supernatant was measured by the method of Ikeda et al. [Ann. […] P. H., 36, 277-282 (1985)] and the concentration of creatinine in the supernatant was measured with creatinine test WAKO (Wako Pure Chem.) The amount of urinary hydroxyproline excretion was expressed by the molar ratio of the amount of hydroxyproline to the amount of creatinine. The rate of inhibition on increase of the amount of urinary hydroxyproline excretion in ovariectomized rats treated with the test compound compared to that of the control group was calculated using the following equation. Inhibition rate (%) = [(P1 - P2)/(P1 - P3)] x 100 [formula] • P1 : The amount of urinary hydroxyproline excretion in ovariectomized rats treated with 0.3% Tween (µmol/mmol). • P2 : The amount of urinary hydroxyproline excretion in ovariectomized rats treated with the test compound (µmol/mmol). • P3 : The amount of urinary hydroxyproline in sham-operated rats treated with 0.3% Tween (µmol/mmol).

PTH enhanced bone = experiment: Inhibitory effect on bone absorption (calcium liberation from PTH enhanced cultured calvaria); type: cell-based, newborn dd mouse; conditions: Mus musculus; calvaria culture with PTH 1 x 10^-8M, 96 hours, total calcium in the culture; test compound 3 x 10^-6M, 1 x 10^-5M, 3 x 10^-5M
Experimental: Test Example 1: Inhibitory effect on bone absorption The calvaria was excised from a newborn dd mouse (5 to 6 days old) under sterile conditions. The calvaria was washed with a modified Dulbecco phosphate buffer physiological saline solution containing neither calcium nor magnesium (a product of Gibco Oriental), and divided into two parts along the center suture. A half of the calvaria was cultivated in a modified Dulbecco Eagle medium (1.5 ml) (a product of Gibco Oriental) containing 2.5% fetal calf serum and 15% equine serum which had been inactivated by heating at 56°C for 20 minutes. The test compound was dissolved in dimethyl sulfoxide and 10 μl of the resulting solution was added to the culture medium to give the final concentrations of 3 x 10^-6M, 1 x 10^-5M, and 3 x 10^-5M. PTH (parathyroid hormone) was dissolved in a 0.15 M saline solution (pH 3) and 3 μl of the resulting solution was added to the culture medium to give the final concentration of 1 x 10^-8M. The culturing was carried out under the condition of 95% air and 5% carbon dioxide and at a temperature of 37°C for 96 hours. At 48 hours after the start of the culturing, the culture medium was renewed and the test compound and PTH treated as defined above were added thereto. For examining the effect of the test compound on calcium liberation (bone absorption) from the PTH enhanced bone, a control group, a group using PTH (1 x 10^-8M), and a group using both the test compound (3 […]) and PTH were prepared. The amount of the bone absorption was determined by measuring the amount of calcium accumulated in the culture as collected after 96 hours of culturing. The total calcium concentration in the culture was measured with Calcium C Test Wako. The inhibition rate was calculated using the following equation and the result was shown in terms of 50% inhibitory concentration (IC50). Inhibition of bone absorption from PTH enhanced bone Inhibition rate (%) = [(CP - CD )/(CP - C0 )] x 100 [formula] • C0 : The total calcium concentration in the culture containing neither the test compound nor PTH. • CP : The total calcium concentration in the culture treated with only PTH. • CD : The total calcium concentration in the culture treated with both the test compound and PTH.

ovariectomized rats [2] = experiment: Inhibitory effect on decrease of bone density by ovariectomy (tibia, DEXA); type: in vivo, SD strain rats; conditions: 10 mg/kg orally once a day for 6 weeks
Experimental: Test Example 3: Inhibitory effect on decrease of bone density by ovariectomy
The experiment was carried out using 13-weeks-old female SD strain rats (Japan Crea Co. Ltd.) The animals were subjected to sham operation or bilateral ovariectomy under Nembutal anesthesia. The test compound (10 mg/kg) was dissolved or suspended in 0.5% methylcellulose (Shin-Etsu Chemical Co., Ltd.) and administered orally once a day from the first day after the operation for 6 weeks. For the sham-operated group and the ovariectomized control group, 0.5% methylcellulose (Shin-Etsu Chemical Co., Ltd.) was administered orally. The rat was slaughtered by femoral artery bleeding, the right hindlimb was ablated, and then the bone mineral content (BMC) and bone density (BD) of the tibia was measured according to a DEXA (DXA) method [Japan Clinic, 52 (9), 2329-2334 (1994)] using bone mineral measuring apparatus DCS-600 (Aloka Co., Ltd.). Tibial BMC and BD in the sham-operated, ovariectomized control, and test compound-treated ovariectomized group are shown in Table 4.

Row | SMILES | IC50 (PTH enhanced bone) [µM] | inhibition in vivo at 10 mg/kg (ovariectomized rats [1]) [%] | BD (mg/cm^2) (ovariectomized rats [2]; tibia bone density) | BMC (ovariectomized rats [2]; tibia bone mineral content) [mg]
1 | O=C(c1c(C(c2ccccc2)c2ccccc2)c2ccccc2n1CCN1CCCC1)N1CCN(c2ccccc2Cl)CC1 [Compound 4, 2-[4-(2-Chlorophenyl)piperazinylcarbonyl]-3-(diphenylmethyl)-1-(2-pyrrolidinylethyl)indole] | – | 43 | – | –
2 | CN(C)CCn1c(C(=O)O)c(C(c2ccccc2)c2ccccc2)c2ccccc21 [Compound 6, 1-(2-Dimethylaminoethyl)-3-(diphenylmethyl)indole-2-carboxylic acid] | – | 100 | – | –
3 | CN(C)CCn1c(C(=O)NC2CCCCCC2)c(C(c2ccccc2)c2ccccc2)c2ccccc21 [Compound 11, N-Cycloheptyl-1-(2-dimethylaminoethyl)-3-(diphenylmethyl)indole-2-carboxamide] | 17.5 | 100 | – | –
4 | CN(C)CCn1c(C(=O)NCCCN2CCCC2=O)c(C(c2ccccc2)c2ccccc2)c2ccccc21 [Compound 21, N-[3-(2-Oxopyrrolidinyl)propyl]-1-(2-dimethylaminoethyl)-3-(diphenylmethyl)indole-2-carboxamide] | 14.3 | 100 | 126.95 ± 1.78 | 268.81 ± 7.38
5 | CN(C)CCn1c(C(=O)NC2CC2)c(C(c2ccccc2)c2ccccc2)c2ccccc21 [Compound 51, N-Cyclopropyl-1-(2-dimethylaminoethyl)-3-(diphenylmethyl)indole-2-carboxamide hydrochloride] | – | 70 | – | –
6 | O=C(NCCN1CCCCC1)c1c(C(c2ccccc2)c2ccccc2)c2ccccc2n1CCN1CCCC1 [Compound 62, N-(2-Piperidinoethyl)-3-(diphenylmethyl)-1-(2-pyrrolidinylethyl)indole-2-carboxamide 2 hydrochloride] | 18.1 | 53 | – | –
7 | CCOC(=O)c1c(C(c2ccccc2)c2ccccc2)c2ccccc2n1CCCN(C)C [Compound 64, Ethyl 1-(3-dimethylaminopropyl)-3-(diphenylmethyl)indole-2-carboxylate] | 16.7 | 77 | – | –
8 | CCCc1ccc(NC(=O)c2c(C(c3ccc(Cl)cc3)c3ccc(Cl)cc3)c3ccccc3n2CCN(C)C)cc1 [Compound 97, N-(4-propylphenyl)-3-[bis(4-chlorophenyl)methyl]-1-(2-dimethylaminoethyl)indole-2-carboxamide hydrochloride] | 14.3 | 40 | – | –
9 | CCOC(=O)c1c(C(c2ccc(C)cc2)c2ccc(C)cc2)c2ccccc2n1CCN1CCCCC1 [Compound 98, Ethyl 3-[bis(4-methylphenyl)methyl]-1-(2-piperidinoethyl)indole-2-carboxylate] | – | 47 | – | –
10 | CN(C)CCn1c(C(=O)NCCCN2CCOCC2)c(C(c2ccccc2)c2ccc(O)cc2)c2ccccc21 (centres unmarked) [Compound 121, N-(3-Morpholinopropyl)-1-(2-dimethylaminoethyl)-3-(4-hydroxybenzhydryl)indole-2-carboxamide 2 hydrochloride] | – | 59 | – | –

Second part, led by results:

Row | IC50 (PTH enhanced bone) [µM] | SMILES | inhibition in vivo at 10 mg/kg (ovariectomized rats [1]) [%] | BD (mg/cm^2) (ovariectomized rats [2]; tibia bone density) | BMC (ovariectomized rats [2]; tibia bone mineral content) [mg]
11 | 14.3 | CC(C)NC(=O)c1c(C(c2ccccc2)c2ccccc2)c2ccccc2n1CCN(C)C [Compound 8, N-Isopropyl-1-(2-dimethylaminoethyl)-3-(diphenylmethyl)indole-2-carboxamide] | 100 | – | –
12 | 9.1 | CN(C)CCn1c(C(=O)N2CCCCC2)c(C(c2ccccc2)c2ccccc2)c2ccccc21 [Compound 10, 1-(2-Dimethylaminoethyl)-3-(diphenylmethyl)-2-(piperidinocarbonyl)indole] | – | – | –
13 | 11.2 | CN(C)CCn1c(C(=O)N2CCOCC2)c(C(c2ccccc2)c2ccccc2)c2ccccc21 [Compound 13, 1-(2-Dimethylaminoethyl)-3-(diphenylmethyl)-2-(morpholinocarbonyl)indole] | – | – | –
14 | 10.9 | CN(C)CCn1c(C(=O)N2CCN(c3ccccc3)CC2)c(C(c2ccccc2)c2ccccc2)c2ccccc21 [Compound 14, 1-(2-Dimethylaminoethyl)-3-(diphenylmethyl)-2-(4-phenylpiperazinylcarbonyl)indole] | – | – | –
15 | 14.3 | CN(C)CCn1c(C(=O)N2CCN(Cc3ccccc3)CC2)c(C(c2ccccc2)c2ccccc2)c2ccccc21 [Compound 15, 2-(4-Benzylpiperazinylcarbonyl)-1-(2-dimethylaminoethyl)-3-(diphenylmethyl)indole] | 100 | – | –
16 | 3.7 | CN(C)CCn1c(C(=O)NCCCN2CCOCC2)c(C(c2ccccc2)c2ccccc2)c2ccccc21 [Compound 20, N-(3-Morpholinopropyl)-1-(2-dimethylaminoethyl)-3-(diphenylmethyl)indole-2-carboxamide] | 100 | – | –
17 | 13.7 | CN(C)CCn1c(C(=O)NCCCn2ccnc2)c(C(c2ccccc2)c2ccccc2)c2ccccc21 [Compound 22, N-[3-(1-Imidazolyl)propyl]-1-(2-dimethylaminoethyl)-3-(diphenylmethyl)indole-2-carboxamide] | 87 | – | –
18 | 13 | CNC(=O)c1c(C(c2ccccc2)c2ccccc2)c2ccccc2n1CCN(C)C [Compound 56, N-Methyl-1-(2-dimethylaminoethyl)-3-(diphenylmethyl)indole-2-carboxamide hydrochloride] | 57 | – | –
19 | 10.8 | CC(C)NC(=O)c1c(C(c2ccccc2)c2ccc(O)cc2)c2ccccc2n1CCN(C)C (centres unmarked) [Compound 119, N-Isopropyl-1-(2-dimethylaminoethyl)-3-(4-hydroxybenzhydryl)indole-2-carboxamide hydrochloride] | – | – | –
20 | 10.5 | CCCc1ccc(NC(=O)c2c(C(c3ccccc3)c3ccc(O)cc3)c3ccccc3n2CCN(C)C)cc1 (centres unmarked) [Compound 120, N-(4-Propylphenyl)-1-(2-dimethylaminoethyl)-3-(4-hydroxybenzhydryl)indole-2-carboxamide hydrochloride] | – | – | –
